“Also recorded” adds a separate entry of the source.
How the values were obtained:
[1] = test system: parental and PI-resistant HMCLs; assay: Cytotoxicity in human MM cell lines (HMCLs); assay type: cell-based; conditions: parental and PI-resistant HMCLs (n=16), read-out: median IC50
Protocol: (§1) The effect of Compound 1 was tested in human MM cell lines (HMCLs) using cytotoxicity, colony formation, co-culture, qPCR, Western Blot, flow cytometry, ELISA, and lentiviral transduction experiments. The effect of Compound 1 was assessed in vivo in the 5TGM1 murine model of MM.

BMI-1 = BMI-1 protein expression in HMCLs; assay type: cell-based, human; conditions: within 24 hrs of treatment
Protocol: as §1

MM cells [2] = assay: Time course experiments: mitotic arrest and apoptosis in MM cells; assay type: cell-based, human
Protocol: as §1

[3] = test system: MYC, AKT, ERK, GSK3b, FOXM1; assay: Central MM signalling cascades and key MM gene protein expression; assay type: cell-based, human
Protocol: as §1

MM cells [4] = assay: Drug combination studies in MM cell lines; assay type: cell-based, human
Protocol: as §1

5TGM1 murine model of MM = assay: 5TGM1 murine model of MM, bone marrow infiltration; assay type: in vivo; conditions: 5TGM1 model
Protocol: as §1

[5] = test system: microtubule polymerization; assay: Mechanistic studies of microtubule polymerization

Compound: Cc1nc2ccc(F)cc2n1-c1nc(N)c(F)c(Nc2ccc(C(F)(F)F)cc2)n1 [Compound 1, 5-fluoro-2-(6-fluoro-2-methyl-1H-benzo[d]imidazol-1-yl)-N^4-[4-(trifluoromethyl)phenyl]pyrimidine-4,6-diamine]
- IC50 [1]: 57.2 nM
- BMI-1 protein expression (BMI-1): downregulated BMI-1 protein expression
- mitotic arrest (MM cells [2]; 6-24 h post treatment, elevated Cyclin B1, AURKA and BIRC5, downregulation of MCL1): potent mitotic arrest
- rescue of MM cells with BMI-1 overexpression (MM cells [2]; BMI-1 overexpression): did not rescue
- apoptosis (MM cells [2]; after prolonged mitosis, Annexin V positive cells, cleaved caspases 8 and 9, cleaved PARP, loss of MCL1, mitochondrial membrane depolarization): induction of apoptosis
- ERK and GSK3b activity [3]: unaffected
- MYC and AKT activity [3]: significant reduction
- MYC and FOXM1 protein expression [3]: Downregulation
- combination effect with established drugs and BH3 mimetics (MM cells [4]; IMiDs, Dex, PIs, MEL, BH3 mimetics targeting BCL2, BCLxL, MCL1, in individual cell lines): synergism
- combination effect with epigenetic modulators (MM cells [4]; targeting EZH2, CBP/EP300, BRD4, HDACs): Consistent synergism
- MM cells after treatment (5TGM1 murine model of MM; 30 mg/kg/biweekly): complete eradication of MM cells
- BM infiltration (5TGM1 murine model of MM; various doses versus vehicle (FIG. 1, *P<0.0001)): dose response reduction; also recorded: reproducible dose dependent reduction
- microtubule polymerization [5]: inhibits microtubule polymerization
